Tested on: Mycobacterium tuberculosis variant bovis
Test: Antibacterial activity against Mycobacterium bovis (BCG); value ranges from 10-20
Type: functional

Row | Compound | MIC [µg/mL]
1 | CC1=CC(C)(C)N(C)c2ncc(/C=C/C(C)=C\C=N\N=C(/N)S)cc21 | < 20

Tested on: Mycobacterium tuberculosis variant bovis
Test: Antibacterial activity against Mycobacterium bovis (BCG); value ranges from 5-10
Type: functional

Row | Compound | MIC [µg/mL]
2 | CCOC(=O)c1ccc(N/C(S)=N/c2ccc3c(c2)C(C)(C)CC(C)(C)O3)cc1 | < 10

Tested on: Mycobacterium tuberculosis variant bovis
Test: Antibacterial activity against Mycobacterium bovis (BCG); value ranges from 2-4
Type: functional

Row | Compound | MIC [µg/mL]
3 | COC(=O)c1ccc(C(=O)Oc2ccc3c(c2)OC(C)(C)C=C3C)cc1 | < 4

Tested on: Mycobacterium tuberculosis variant bovis
Test: Antibacterial activity against Mycobacterium bovis (BCG); value ranges from 0.5-1
Type: functional

Row | Compound | MIC [µg/mL]
4 | CC(C)CCOc1ccc(NC(=S)Nc2ccc(OCCC(C)C)cc2)cc1 [TIOCARLIDE] | < 1

Tested on: Mycobacterium tuberculosis variant bovis
Test: Antibacterial activity against Mycobacterium bovis (BCG); value ranges from 20-40
Type: functional

Row | Compound | MIC [µg/mL]
5 | CCOC(=O)c1ccc(N/C(S)=N/c2ccc3c(c2)C(C)(C)CC(C)(C)S3)cc1 | < 40
6 | CCOC(=O)c1ccc(NC(=O)Nc2cccc3c2OC(C)(C)CC3(C)C)cc1 | < 40
7 | CC1(C)CC(C)(C)c2cc(N/C(S)=N/c3ccc([N+](=O)[O-])cc3)ccc2O1 | < 40
8 | CCOC(=O)c1ccc(NC(=O)Nc2ccc3c(c2)C(C)(C)CC(C)(C)O3)cc1 | < 40
9 | CCOC(=O)c1ccc(N/C(S)=N/c2ccc3c(c2)C(C)=CC(C)(C)N3C)cc1 | < 40
10 | CCOC(=O)c1ccc(N/C(S)=N/c2cccc3c2OC(C)(C)CC3(C)C)cc1 | < 40
11 | CCOC(=O)c1ccc(NC(=O)Nc2ccc3c(c2)C(C)=CC(C)(C)N3C)cc1 | < 40
12 | CC1(C)CC(C)(C)c2cccc(/N=C(\S)Nc3ccc([N+](=O)[O-])cc3)c2O1 | < 40
13 | CCOC(=O)c1ccc(NC(=O)Nc2ccc3c(c2)C(C)(C)CC(C)(C)S3)cc1 | < 40
14 | COc1ccc2c(c1NC(=S)NC(=O)c1ccc([N+](=O)[O-])cc1)C(C)(C)COC2(C)C | < 40
15 | CC1=CC(C)(C)N(C)c2ccc(N/C(S)=N/c3ccc([N+](=O)[O-])cc3)cc21 | < 40
16 | COc1ccc2c(c1/N=C(\S)Nc1ccc([N+](=O)[O-])cc1)C(C)(C)COC2(C)C | < 40
